In general, EC50 refers to the midpoint of the concentration-response curve.

For the first test, the system named is NL-RLuc virus. Nature of the test: Inhibition of HIV replication: NL-RLuc reporter virus in MT-2 cells, luciferase readout. Particulars: Human immunodeficiency virus 1, MT2, 120 h, MT-2 cells infected with NL-RLuc virus, 5 days of incubation, 10% FBS, at least 2 experiments. It is filed as cell-based. The text has this: Inhibition of HIV Replication:
A recombinant NL-RLuc proviral clone was constructed in which a section of the nef gene from NL4-3 was replaced with the Renilla Luciferase gene. This virus is fully infectious and can undergo multiple cycles of replication in cell culture. In addition, the luciferous reporter provides a simple and easy method for quantitating the extent of virus growth and consequently, the antiviral activity of test compounds. The plasmid pNLRLuc contains the proviral NL-Rluc DNA cloned into pUC 18 at the PvuII site. The NL-RLuc virus was prepared by transfection of 293T cells with the plasmid pNLRLuc. Transfections were performed using the LipofectAMINE PLUS kit from Invitrogen (Carlsbad, Calif.) according to the manufacturer and the virus generated was titered in MT-2 cells. For susceptibility analyses, the titrated virus was used to infect MT-2 cells in the presence of compound, and after 5 days of incubation, cells were processed and quantitated for virus growth by the amount of expressed luciferase. Assay media was RPMI 1640 supplemented with 10% heat inactivated fetal bovine serum (FBS), 100 units/ml penicillin G/100 units/ml streptomycin, 10 mM HEPES buffer pH 7.55 and 2 mM L-glutamine. The results from at least 2 experiments were used to calculate the EC50 values. Luciferase was quantitated using the Dual Luciferase kit from Promega (Madison, Wis.). Susceptibility of viruses to compounds was determined by incubation in the presence of serial dilutions of the compound. The 50% effective concentration (EC50) was calculated by using the exponential form of the median effect equation where (Fa)=1/[1+(ED50/drug conc.)^m](Johnson V A, Byington R T. Infectivity Assay. In Techniques in HIV Research. ed. Aldovini A, Walker B D. 71-76. New York: Stockton Press. 1990).
Regarding `Cc1cc2nc3cn2c(c1[C@H](OC(C)(C)C)C(=O)O)N1CCC(C)(CCCCCOc2ccccc2CNC3=O)CC1` [Example 1, (2S)-2-(tert-Butoxy)-2-{4,25-dimethyl-10-oxo-19-oxa-1,7,11,30-tetraazapentacyclo[23.2.2.1^6,^9.0^2,^7.0^13,^18]triaconta-2,4,6(30),8,13(18),14,16-heptaen-3-yl}acetic acid], the EC50 is 71 nM.

`Cc1cc2nc3cn2c(c1[C@H](OC(C)(C)C)C(=O)O)N1CCC(C)(CCCCCCOc2ccc(F)cc2CNC3=O)CC1` [Example 2, (2S)-2-(tert-Butoxy)-2-{15-fluoro-4,26-dimethyl-10-oxo-19-oxa-1,7,11,31-tetraazapentacyclo[24.2.2.1^6,^9.0^2,^7.0^13,^18]hentriaconta-2,4,6(31),8,13(18),14,16-heptaen-3-yl}acetic acid]: the EC50 came out at 16 nM.

With `Cc1cc2nc3cn2c(c1[C@H](OC(C)(C)C)C(=O)O)N1CCC(C)(CC1)OCCCCCOc1ccc(F)cc1CNC3=O` [Example 3, (2S)-2-(tert-Butoxy)-2-{15-fluoro-4,26-dimethyl-10-oxo-19,25-dioxa-1,7,11,31-tetraazapentacyclo[24.2.2.1^6,^9.0^2,^7.0^13,^18]hentriaconta-2,4,6(31),8,13(18),14,16-heptaen-3-yl}acetic acid], the EC50 was 27 nM.

In the case of `Cc1cc2nc3cn2c(c1[C@H](OC(C)(C)C)C(=O)O)N1CCC(C)(CC1)OCCCCCOc1ccccc1Cc1nnc-3o1` [Example 4, (2S)-2-(tert-Butoxy)-2-{4,28-dimethyl-21,27,33-trioxa-1,7,11,12,34-pentaazahexacyclo[26.2.2.1^6,^9.1^10,^13.0^2,^7.0^15,^20]tetratriaconta-2,4,6(34),8,10,12,15(20),16,18-nonaen-3-yl}acetic acid], it took 10 nM to reach a half-maximal effect (EC50).

The compound `Cc1cc2nc3cn2c(c1[C@H](OC(C)(C)C)C(=O)O)N1CCC(C)(CC1)OCCCCCOc1ccc(F)cc1Cc1nc-3[nH]c1Cl` [Example 5] displayed an EC50 of 7 nM.

As for `Cc1cc2nc3cn2c(c1[C@H](OC(C)(C)C)C(=O)O)N1CCC(C)(CC1)OC/C=C/C[C@H](C)Oc1cc(F)ccc1-c1cccc-3c1` [Example 6, (2S)-2-(tert-Butoxy)-2-[(22S)-18-fluoro-4,22,28-trimethyl-21,27-dioxa-1,7,34-triazahexacyclo[26.2.2.1^6,^9.1^10,^14.0^2,^7.0^15,^20]tetratriaconta-2,4,6(34),8,10(33),11,13,15(20),16,18,24-undecaen-3-yl]acetic acid], a half-maximal response (EC50) required 5 nM.

`Cc1cc2nc3cn2c(c1[C@H](OC(C)(C)C)C(=O)O)N1CCC(C)(CC1)OCCCC[C@H](C)Oc1cc(F)ccc1-c1cccc-3c1` [Example 7, (2S)-2-(tert-Butoxy)-2-[(22S)-4,17,22,28-tetramethyl-21,27-dioxa-1,7,34-triazahexacyclo[26.2.2.1^6,^9.1^10,^14.0^2,^7.0^15,^20]tetratriaconta-2,4,6(34),8,10(33),11,13,15(20),16,18-decaen-3-yl]acetic acid] displayed an EC50 of 5 nM.

For the compound `Cc1ccc2c(c1)-c1cccc(c1)-c1cn3c(c([C@H](OC(C)(C)C)C(=O)O)c(C)cc3n1)N1CCC(C)(CC1)OCCCC[C@H](C)O2` [Example 8, (2S)-2-(tert-Butoxy)-2-[(22S)-4,17,22,28-tetramethyl-21,27-dioxa-1,7,34-triazahexacyclo[26.2.2.1^6,^9.1^10,^14.0^2,^7.0^15,^20]tetratriaconta-2,4,6(34),8,10(33),11,13,15(20),16,18-decaen-3-yl]acetic acid], the EC50 was 15 nM.

`Cc1ccc2c(c1)-c1cccc(c1)-c1cn3c(c([C@H](OC(C)(C)C)C(=O)O)c(C)cc3n1)N1CCC(C)(CC1)OC/C=C/C[C@H](C)O2` [Example 9, (2S)-2-(tert-Butoxy)-2-[(22S)-4,17,22,28-tetramethyl-21,27-dioxa-1,7,34-triazahexacyclo[26.2.2.1^6,^9.1^10,^14.0^2,^7.0^15,^20]tetratriaconta-2,4,6(34),8,10(33),11,13,15(20),16,18,24-undecaen-3-yl]acetic acid] had an EC50 of 9 nM.

`Cc1cc2nc3cn2c(c1[C@H](OC(C)(C)C)C(=O)O)N1CCC(C)(CC1)OCCCC[C@H](C)Oc1ccc(F)cc1-c1cccc-3c1` [Example 10, (2S)-2-(tert-Butoxy)-2-[(22S)-17-fluoro-4,22,28-trimethyl-21,27-dioxa-1,7,34-triazahexacyclo[26.2.2.1^6,^9.1^10,^14.0^2,^7.0^15,^20]tetratriaconta-2,4,6(34),8,10(33),11,13,15(20),16,18-decaen-3-yl]acetic acid] gave an EC50 of 4 nM.

Consider `Cc1cc2nc3cn2c(c1[C@H](OC(C)(C)C)C(=O)O)N1CCC(C)(CC1)OC/C=C/C[C@H](C)Oc1cc(F)c(F)cc1-c1cccc-3c1` [Example 11, (2S)-2-(tert-Butoxy)-2-[(22S)-17,18-difluoro-4,22,28-trimethyl-21,27-dioxa-1,7,34-triazahexacyclo[26.2.2.1^6,^9.1^10,^14.0^2,^7.0^15,^20]tetratriaconta-2,4,6(34),8,10(33),11,13,15(20),16,18,24-undecaen-3-yl]acetic acid], for which the EC50 amounted to 12 nM.

For the compound `Cc1cc2nc3cn2c(c1[C@H](OC(C)(C)C)C(=O)O)N1CCC(C)(CC1)OC/C=C\C[C@H](C)Oc1cc(F)c(F)cc1-c1cccc-3c1` [Example 12, (2S)-2-(tert-Butoxy)-2-[(22S)-17,18-difluoro-4,22,28-trimethyl-21,27-dioxa-1,7,34-triazahexacyclo[26.2.2.1^6,^9.1^10,^14.0^2,^7.0^15,^20]tetratriaconta-2,4,6(34),8,10(33),11,13,15(20),16,18,24-undecaen-3-yl]acetic acid], it took 3 nM to reach a half-maximal effect (EC50).

Regarding `Cc1cc2nc3cn2c(c1[C@H](OC(C)(C)C)C(=O)O)N1CCC(C)(CC1)OCCCC[C@H](C)Oc1cc(F)c(F)cc1-c1cccc-3c1` [Example 13, (2S)-2-(tert-Butoxy)-2-[(22S)-17,18-difluoro-4,22,28-trimethyl-21,27-dioxa-1,7,34-triazahexacyclo[26.2.2.1^6,^9.1^10,^14.0^2,^7.0^15,^20]tetratriaconta-2,4,6(34),8,10(33),11,13,15(20),16,18-decaen-3-yl]acetic acid], the EC50 was 8 nM.

`Cc1cc2nc3cn2c(c1[C@H](OC(C)(C)C)C(=O)O)N1CCC(C)(CC1)OCCCCC[C@H](C)Oc1cc(F)cc(F)c1-c1cccc-3c1` [Example 16, (2S)-2-(tert-Butoxy)-2-[(22S)-16,18-difluoro-4,22,28-trimethyl-21,27-dioxa-1,7,34-triazahexacyclo[26.2.2.1^6,^9.1^10,^14.0^2,^7.0^15,^20]tetratriaconta-2,4,6(34),8,10(33),11,13,15(20),16,18-decaen-3-yl]acetic acid] had an EC50 of 4 nM.

On to `Cc1cc2c(cc1C)-c1cccc(c1)-c1cn3c(c([C@H](OC(C)(C)C)C(=O)O)c(C)cc3n1)N1CCC(C)(CC1)OCC=CC[C@H](C)O2` [Example 17, (2S)-2-(tert-Butoxy)-2-[(22S)-4,17,18,22,28-pentamethyl-21,27-dioxa-1,7,34-triazahexacyclo[26.2.2.1^6,^9.1^10,^14.0^2,^7.0^15,^20]tetratriaconta-2,4,6(34),8,10(33),11,13,15(20),16,18,24-undecaen-3-yl]acetic acid], for which the EC50 was 6 nM.

In the case of `Cc1cc2c(cc1C)-c1cccc(c1)-c1cn3c(c([C@H](OC(C)(C)C)C(=O)O)c(C)cc3n1)N1CCC(C)(CC1)OC/C=C\C[C@H](C)O2` [Example 18, (2S)-2-(tert-Butoxy)-2-[(22S)-4,17,18,22,28-pentamethyl-21,27-dioxa-1,7,34-triazahexacyclo[26.2.2.1^6,^9.1^10,^14.0^2,^7.0^15,^20]tetratriaconta-2,4,6(34),8,10(33),11,13,15(20),16,18,24-undecaen-3-yl]acetic acid], the EC50 was 8 nM.

`Cc1cc2c(cc1C)-c1cccc(c1)-c1cn3c(c([C@H](OC(C)(C)C)C(=O)O)c(C)cc3n1)N1CCC(C)(CC1)OCCCC[C@H](C)O2` [Example 19, (2S)-2-(tert-Butoxy)-2-[(22S)-4,17,18,22,28-pentamethyl-21,27-dioxa-1,7,34-triazahexacyclo[26.2.2.1^6,^9.1^10,^14.0^2,^7.0^15,^20]tetratriaconta-2,4,6(34),8,10(33),11,13,15(20),16,18-decaen-3-yl]acetic acid] yielded an EC50 of 15 nM.

The test is the same for the next values; noted with them: MT-2 cells infected with NL-RLuc virus, 5 days of incubation, 10% FBS, at least 2 experiments; read-out: EC50.
`Cc1cc2nc3cn2c(c1[C@H](OC(C)(C)C)C(=O)O)N1CCC(C)(CC1)OCC=CC[C@H](C)Oc1cc(F)cc(F)c1-c1cccc-3c1` [Example 14, (2S)-2-(tert-Butoxy)-2-[(22S)-16,18-difluoro-4,22,28-trimethyl-21,27-dioxa-1,7,34-triazahexacyclo[26.2.2.1^6,^9.1^10,^14.0^2,^7.0^15,^20]tetratriaconta-2,4,6(34),8,10(33),11,13,15(20),16,18,24-undecaen-3-yl]acetic acid]: the EC50 was determined as 2 nM.

The values are drawn from US9409922B2, “Imidazopyridine macrocycles as inhibitors of human immunodeficiency virus replication” (priority 2014, dated 2016).
